# Test results taken from patent US9820988B2, “Treatment of epileptic disorders in feline animals” (Boehringer Ingelheim Vetmedica GmbH, priority 2014, dated 2017).
# Where two headings read alike, the source gives them in different places.
# What was measured:
# [1] = system: treated cats; conditions: cited from earlier work
# [2] = system: feline amygdala or hippocampal kindled seizures; conditions: partial onset and secondarily generalized limbic seizures; cited from earlier work
# [3] = system: cats with epilepsy; test: Efficacy 1: two cats diagnosed with epilepsy, severe generalized seizures; format: in vivo, cat
# Protocol: Two cats are diagnosed with epilepsy, having severe generalized seizures.
# The first cat, a 14 year old European Short-Hair cat, had two severe generalized seizures. Both lasted around two minutes, the cat lost consciousness and was disoriented after the seizure. In addition, a fibrosarcoma and hyperthyroidism was diagnosed. The cat was treated twice a day with 100 mg imepitoin, being a dose of 25 mg/kg bodyweight. […] This resolved spontaneously after 10 days of treatment.
# The second cat, 7 years old, experienced two generalized seizures on two consecutive days, and the diagnosis was epilepsy of unknown cause. The cat appeared to be sleepier in the time before occurrence of first seizure.
# [4] = Pharmacokinetics of imepitoin in cats after oral administration (Example 1); format: in vivo, cat; conditions: for Tmax / Cmax / AUC(0-t): po; for Tmax: 30 mg/kg; for Cmax / AUC(0-t): Day 0, first dose of 30 mg/kg; for AUC(0-t): read-out: AUC0-6h
# Protocol: FIG. 1 Mean plasma concentration-time curves of imepitoin after the first oral dose of 30 mg/kg imepitoin in male (M) and female cats (F) at Day 0, Day 14 and Day 29 (semi-logarithmic scale).
# When administered orally at a preferred dose of e.g. 30 mg/kg bodyweight twice daily (60 mg/kg bodyweight daily dose) imepitoin the highest plasma concentration […] is reached in median 1 hour (range 0.5 to 3 hours) after administration, in most cases 1 hour.
# Corresponding AUC0-6h-values are 28001 ng·h/mL and 24467 ng·h/mL, respectively.
# [5] = system: clinically healthy male and female cats; test: Safety 1: tolerance in clinically healthy cats after repeated oral administration for 30 days; format: in vivo, cat
# Source text: In a randomized, controlled, blinded study the tolerance of imepitoin is investigated in clinically healthy male and female cats after repeated oral administration for 30 days.
# Twelve 1-3 years old, male and female domestic short hair cats with a body weight range of 2.8-4.4 kg are assigned to this study. The animals are randomly allocated to two groups, three male and three female animals per group. The test article (imepitoin) is orally administered to the animals of group II at a target dose of 30 mg imepitoin/kg bodyweight twice daily at an interval of 8-12 h on days 0-29. Group I is left untreated serving as controls.
# [6] = system: cats with epileptic disorders; test: Efficacy 3: imepitoin versus phenobarbital in two groups of cats with epileptic disorders
# [7] = system: cats with drug resistant epilepsy; test: Efficacy 4: cats with drug-resistant (phenobarbital) epileptic disorders switched to imepitoin; format: in vivo, cat
# Protocol: Cats with epileptic disorders are treated with increasing doses of phenobarbital, starting from 3 mg/kg bodyweight twice daily up to the maximum tolerated dose. […] According to this treatment failure this represents drug-resistant epileptic disorders. The treatment of these cats with drug resistant epilepsy is now changed to imepitoin, provided at high doses as for example 30 mg/kg bodyweight twice daily.
# [8] = system: clinically healthy male and female cats; test: Safety 2: repeated oral administration of 40 and 80 mg/kg twice daily for 30 days, placebo controlled; format: in vivo, cat
# Protocol: FIG. 3 Measurement of Alkaline Phosphatase (AP) in serum following administration of imepitoin in doses of 40 or 80 mg/kg bodyweight twice daily, or placebo. AP is routinely used to judge liver function and diagnose liver pathologies, and an elevated AP is indicative for a variety of diseases. […] Day 0 reflects measurement before treatment start.
# Eighteen 9 months old, male and female domestic short hair cats with a body weight range of 2.3-4.9 kg are assigned to this study. The animals are allocated to three test groups employing a pseudo-random body weight stratification procedure that yielded groups with approximately equal mean body weight, with three male and three female animals per group. The test article (imepitoin) is orally administered to the animals at a target dose of 40 mg imepitoin/kg bodyweight and 80 mg imepitoin/kg bodyweight twice daily at an interval of 8-12 h on days 0-30. The third group receives visually identical placebo tablets, to avoid identification of the Placebo Group.
# Physical examination a day before treatment start and on study days 7, 14 and 30 includes body temperature (rectal), ocular system, musculoskeletal system, cardiovascular system, reproductive system, lymphatic system, behavior, nervous system, integumentary system, respiratory system, urinary system and gastro-intestinal system. In addition, blood and urine samples are analyzed before treatment and after 30 days.
# [9] = system: feline patients with epilepsy; test: Efficacy 2: seizure frequency and severity in feline patients versus untreated status at diagnosis; format: in vivo, cat
# Source text: In some animals, treatment with current standard of care, phenobarbital, is not effective and results in frequent severe seizures despite high-dose treatment.
# [10] = system: healthy cats; conditions: 20 mg/kg dose; cited from earlier work
# [11] = second cat, 10 mg/kg bodyweight twice daily
# [12] = second cat, 20 mg/kg bodyweight twice daily
# [13] = female, domestic short hair, plasma, females (n=3)
# [14] = male, domestic short hair, plasma, males (n=3)
# [15] = 30 mg/kg bodyweight twice daily, days 0-29
# [16] = imepitoin 30 mg/kg twice daily, phenobarbital 3.5 mg/kg twice daily
# [17] = 40 and 80 mg/kg body weight twice daily for 30 days
# [18] = 40 and 80 mg/kg body weight twice daily, after 30 days
compound,measurement,setting,value
[Br-].[K+] [Bromide],treated cats with idiosyncratic allergic pneumonitis,[1]; cats,35-42%
same,treated cats with seizures controlled,[1]; cats,about 35%
CC[C@@H](C(N)=O)N1CCCC1=O [Levetiracetam],efficacy as add-on therapy,"[1]; cats with refractory epilepsy under phenobarbital treatment, 10 cats",somewhat effective
Cl.O=C(O)C1CCCN(CCC=C(c2ccccc2)c2ccccc2)C1 (stereo not shown) [SKF89976A],anticonvulsant effect on kindled seizures,[2],potent anticonvulsant effects
NCC(CC(=O)O)c1ccc(Cl)cc1 (stereo not shown) [baclofen],anticonvulsant effect on kindled seizures,[2],did not show anticonvulsant effects
C=CC(N)CCC(=O)O (stereo not shown) [gamma-vinyl GABA],anticonvulsant effect on kindled seizures,[2],potent anticonvulsant effects
"O=C1N=C(N2CCOCC2)CN1c1ccc(Cl)cc1 [imepitoin, 1-(4-chlorophenyl)-4-(4-morpholinyl)-2,5-dihydro-1H-imidazol-2-one]",considerable adverse events,"[3]; first cat, 25 mg/kg bodyweight twice a day",No considerable adverse events were observed
same,tiredness,"[3]; first cat, 25 mg/kg bodyweight twice a day, initially","tiredness 1-1.5 hours after application of the drug, which lasted for about two hours"
same,duration of complete seizure freedom (observation period),"[3]; first cat, 25 mg/kg then 20 mg/kg bodyweight twice a day",6 months
same,seizures under treatment,"[3]; first cat, 14 years, 100 mg (25 mg/kg bodyweight) twice a day",no further seizures
same,tiredness after dose reduction,"[3]; first cat, dose reduced to 20 mg/kg bodyweight after three months",the tiredness disappeared
same,seizures under treatment,[3]; [11],experienced again a seizure
same,tiredness,[3]; [11],resolved the tiredness
same,duration of complete seizure freedom (observation period),[3]; [12],2.5 months
same,tiredness or other adverse events,[3]; [12],No tiredness or other adverse events were observed
same,tiredness,"[3]; second cat, 30 mg/kg bodyweight twice a day",showed the tiredness observed in the first cat already after treatment start
same,response to treatment,"[3]; second cat, 7 years, 30 mg/kg bodyweight twice a day",responded immediately to treatment
same,accumulation upon long-term BID dosing,"[4]; 30 mg/kg twice daily, Days 0-29",no accumulation occurs
same,exposure compared to the first dosing day,[4]; after 14 and 29 days of twice daily dosing,slightly lower exposure
same,Tmax,"[4]; both sexes, domestic short hair, plasma, oral, 30 mg/kg bodyweight twice daily, read-out: tMax, median",1 h
same,Tmax,"[4]; both sexes, domestic short hair, plasma, oral, 30 mg/kg bodyweight twice daily, read-out: tMax, range",0.5 to 3 h
same,half-life,"[4]; both sexes, domestic short hair, plasma, oral, 30 mg/kg bodyweight twice daily, read-out: half-life time t1/2 (converted)",1.5 h
same,Cmax,[4]; [13],6640 ng/mL
same,AUC(0-t),[4]; [13],24500 ng·h/mL
same,Cmax,[4]; [14],7050 ng/mL
same,AUC(0-t),[4]; [14],28000 ng·h/mL
same,time of last measurable concentration,[4]; oral 30 mg/kg,more than 18 hours
same,liver enzyme measurements versus untreated control,"[5]; 30 mg/kg bodyweight twice daily, FIGS. 2A+2B",no difference between imepitoin-treated and untreated (control) animals
same,Mortality,[5]; [15],not observed
same,"effect on body weight development, food and water consumption, heart rate, respiratory rate and laboratory parameters (hematology, clinical chemistry, urinalysis)",[5]; [15],No evidence of a clear effect
same,sedation,[5]; [15],No sedation is observed in any animal
same,animals with temporary vomitus or choking,"[5]; 30 mg/kg twice daily, from the second week of treatment onwards",3 of 6
same,seizure freedom among well controlled cats,[6]; imepitoin 30 mg/kg bodyweight twice daily,the majority of them reach seizure freedom
same,cats poorly controlled / disease not adequately controlled,[6]; [16],about 15%
same,cats with well controlled epilepsy/seizures,[6]; [16],85%
same,reduction of seizure frequency,"[7]; after change to imepitoin 30 mg/kg bodyweight twice daily, in most cases",at least 50%
same,seizure status after transition from phenobarbital to imepitoin monotherapy,[7]; cats with uncontrolled or continuing seizures under phenobarbital,became seizure free
same,behavioral changes or sedation,[8]; [17],not noted
same,considerable adverse events,[8]; [17],no considerable adverse events are observed
same,emesis,[8]; [17],intermittently observed in the second and third week of treatment
same,tolerability,[8]; [17],well tolerated by all cats
same,hematological or biochemical abnormalities in blood examination,[8]; [18],No hematological or biochemical abnormalities are noted
same,urine analysis,[8]; [18],physiological results
same,Alkaline Phosphatase (AP) in serum,"[8]; 40 or 80 mg/kg bodyweight twice daily, FIG. 3",in the physiological range with normal variance
same,seizure frequency and severity compared to untreated status at diagnosis,[9]; 30 mg/kg bodyweight twice daily,significantly reduced
same,cats achieving seizure freedom,[9]; 30 mg/kg bodyweight twice daily at an interval of 8-14 hours,at least 40%
same,considerable adverse events,"[9]; 30 mg/kg bodyweight twice daily, seizure-free cats",do also not experience considerable adverse events
same,seizure frequency and/or severity in animals in which phenobarbital is not effective,[9]; 20 to 60 mg/kg bodyweight two- or three-times daily,reduces seizure frequency and/or severity significantly
CCC1(c2ccccc2)C(=O)NC(=O)NC1=O [phenobarbital],treated cases with sedation,"[1]; cats, recent study (Pakozdy et al. 2013)",over 40%
same,cats poorly controlled / disease not adequately controlled,[6]; [16],30%
same,cats with well controlled epilepsy/seizures,[6]; [16],70%
same,treated cats experiencing at least one adverse event,[6]; [16],65%
same,treated cats experiencing sedation as side effect,[6]; phenobarbital 3.5 mg/kg bodyweight twice daily,approximately 40%
NC(=O)CCC/N=C(\c1ccc(Cl)cc1)c1cc(F)ccc1O [progabide],anticonvulsant effect on kindled seizures,[2],potent anticonvulsant effects
NS(=O)(=O)Cc1noc2ccccc12 [zonisamide],"share of healthy cats with adverse reactions (anorexia, diarrhea, vomiting, somnolence, ataxia)",[10],Approximately half
